Assay [1] relates to Zar1 5′-UTR (RNA, G4) UGGGCGGGCGAGGCGCGGGACGCACCC
The assay can be described thus: CD titration. Conditions: 100 mM KCl; 10 mM Tris-HCl pH 7.4, 25°C; 5 μM RNA, 5-20 μM BYBX.

For assay [2] the test system is unchanged. The assay can be described thus: CD melting at 262 nm. The following applies: 20 mM KCl; 10 mM Tris-HCl pH 7.4; 10 μM BYBX, 5 μM RNA.
Assay [3] has as its system Zar1 5′-UTR^ΔrG4 (RNA, single strand) UGAACAAACGAAACACGAAACGCACCC
The assay is described as follows: CD melting at 262 nm. The following applies: 20 mM KCl; 10 mM Tris-HCl pH 7.4; 10 μM BYBX, 5 μM RNA; no melting transition seen.

Assay [4] shares this test system. The assay can be described thus: ITC. Conditions: 60 mM KCl, 25 mM KH2PO4; pH 7.4, 0.4% DMSO, 25°C; n.d., signal too weak; 100 μM BYBX in syringe.
The test system of assay [5] is Zar1 5′-UTR (RNA, G4) UGGGCGGGCGAGGCGCGGGACGCACCC
The assay can be described thus: fluorescence titration (ex 447 nm, em 538 nm). The following applies: 100 mM KCl; 10 mM Tris-HCl pH 7.4, 25°C; 1 μM BYBX, RNA 0-1.9 μM; 50-fold enhancement.

Assay [6] shares this test system. The assay can be described thus: ITC. The following applies: 60 mM KCl, 25 mM KH2PO4; pH 7.4, 0.4% DMSO, 25°C; one set of sites; 10 μM RNA, 100 μM BYBX in syringe.
In assay [7] the test system is Zar1 5′-UTR^ΔrG4 (RNA, single strand) UGAACAAACGAAACACGAAACGCACCC
The assay is described as follows: fluorescence titration (ex 447 nm, em 538 nm). The following applies: 100 mM KCl; 10 mM Tris-HCl pH 7.4, 25°C; 1 μM BYBX; almost no emission.

Our source for the binding, ΔTm and KD values is article PMC12041855 (2025).

The ΔTm is the change in melting temperature against a reference sample. Usually KD stands for the constant that tells how readily two partners part at equilibrium. Read a high KD as a looser complex. As to `CN1/C(=C/C2=[N+](CC(N)=O)c3ccc4ccccc4c3C2(C)C)Sc2ccccc21`, the binding entry in assay [1] is “yes”; in assay [4] it was “no”; in assay [5] it was “yes”; in assay [7] it was “no”. The ΔTm in assay [2] worked out at 11 °C; in assay [3], 0.06 °C. In assay [6], this compound came in with a KD of 393 nM.
